Source: PubChem BioAssay (NCI)
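In this assay, cells in 96-well plates receive the compound at five concentrations for 48 hours. Endpoints are linearly interpolated between the surrounding concentrations. Here, GI50 denotes the concentration required for 50% inhibition of growth. TGI: concentration producing complete growth inhibition.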

Columns and labels:
Test in all cases: growth of human tumour cells (NCI), 48 h
K-562 leukemia = tested on: K-562 leukemia
OVCAR-5 ovarian = tested on: OVCAR-5 ovarian
SW-620 colon = tested on: SW-620 colon
RPMI-8226 leukemia = tested on: RPMI-8226 leukemia
HCC-2998 colon = tested on: HCC-2998 colon
UACC-257 melanoma = tested on: UACC-257 melanoma
SF-295 CNS = tested on: SF-295 CNS
ACHN renal = tested on: ACHN renal
KM12 colon = tested on: KM12 colon
OVCAR-8 ovarian = tested on: OVCAR-8 ovarian
LOX IMVI melanoma = tested on: LOX IMVI melanoma
CAKI-1 renal = tested on: CAKI-1 renal
MOLT-4 leukemia = tested on: MOLT-4 leukemia
COLO 205 colon = tested on: COLO 205 colon
SNB-19 CNS = tested on: SNB-19 CNS
UACC-62 melanoma = tested on: UACC-62 melanoma
SK-MEL-2 melanoma = tested on: SK-MEL-2 melanoma
HL-60(TB) leukemia = tested on: HL-60(TB) leukemia
SNB-75 CNS = tested on: SNB-75 CNS
NCI-H23 lung = tested on: NCI-H23 lung
SK-MEL-28 melanoma = tested on: SK-MEL-28 melanoma
SR leukemia = tested on: SR leukemia
SF-539 CNS = tested on: SF-539 CNS
HCT-15 colon = tested on: HCT-15 colon
SK-OV-3 ovarian = tested on: SK-OV-3 ovarian
SK-MEL-5 melanoma = tested on: SK-MEL-5 melanoma
U251 CNS = tested on: U251 CNS
M14 melanoma = tested on: M14 melanoma
T-47D breast = tested on: T-47D breast
HOP-62 NSCLC = tested on: HOP-62 NSCLC
OVCAR-4 ovarian = tested on: OVCAR-4 ovarian
A549 NSCLC = tested on: A549 NSCLC
NCI-H226 lung = tested on: NCI-H226 lung
MDA-MB-231 breast = tested on: MDA-MB-231 breast
EKVX NSCLC = tested on: EKVX NSCLC
DU-145 prostate = tested on: DU-145 prostate
CCRF-CEM leukemia = tested on: CCRF-CEM leukemia
SN12C renal = tested on: SN12C renal
IGROV1 ovarian = tested on: IGROV1 ovarian
NCI/ADR-RES ovarian = tested on: NCI/ADR-RES ovarian
RXF 393 renal = tested on: RXF 393 renal
BT-549 breast = tested on: BT-549 breast
UO-31 renal = tested on: UO-31 renal
PC-3 prostate = tested on: PC-3 prostate
OVCAR-3 ovarian = tested on: OVCAR-3 ovarian
HCT-116 colon = tested on: HCT-116 colon
MALME-3M melanoma = tested on: MALME-3M melanoma
TK-10 renal = tested on: TK-10 renal
786-0 renal = tested on: 786-0 renal
HOP-92 NSCLC = tested on: HOP-92 NSCLC
A498 renal = tested on: A498 renal
MCF7 breast = tested on: MCF7 breast
NCI-H522 lung = tested on: NCI-H522 lung
HT29 colon = tested on: HT29 colon
HS 578T breast = tested on: HS 578T breast
NCI-H460 lung = tested on: NCI-H460 lung
SF-268 CNS = tested on: SF-268 CNS
MDA-MB-435 = tested on: MDA-MB-435

Compound: O=c1oc2ccc(Br)cc2c(=O)n1-c1ccc(I)cc1F
- GI50 (K-562 leukemia): 0.389 µM
- TGI (K-562 leukemia): > 100 µM
- GI50 (OVCAR-5 ovarian): 3.59 µM
- TGI (OVCAR-5 ovarian): > 100 µM
- GI50 (SW-620 colon): 0.479 µM
- TGI (SW-620 colon): 10.5 µM
- GI50 (RPMI-8226 leukemia): 0.266 µM
- TGI (RPMI-8226 leukemia): 1.16 µM
- GI50 (HCC-2998 colon): 2.2 µM
- TGI (HCC-2998 colon): 8.78 µM
- GI50 (UACC-257 melanoma): 0.328 µM
- TGI (UACC-257 melanoma): 1.91 µM
- GI50 (SF-295 CNS): 1.5 µM
- TGI (SF-295 CNS): 3.12 µM
- GI50 (ACHN renal): 0.401 µM
- TGI (ACHN renal): 6.04 µM
- GI50 (KM12 colon): 1.66 µM
- TGI (KM12 colon): 4.37 µM
- GI50 (OVCAR-8 ovarian): 0.362 µM
- TGI (OVCAR-8 ovarian): 5.98 µM
- GI50 (LOX IMVI melanoma): 0.393 µM
- TGI (LOX IMVI melanoma): 2.94 µM
- GI50 (CAKI-1 renal): 0.229 µM
- TGI (CAKI-1 renal): 1.16 µM
- GI50 (MOLT-4 leukemia): 0.579 µM
- TGI (MOLT-4 leukemia): 3.22 µM
- GI50 (COLO 205 colon): 3.97 µM
- TGI (COLO 205 colon): 15.1 µM
- GI50 (SNB-19 CNS): 0.363 µM
- TGI (SNB-19 CNS): > 70 µM
- GI50 (UACC-62 melanoma): 0.264 µM
- TGI (UACC-62 melanoma): 0.886 µM
- GI50 (SK-MEL-2 melanoma): 0.252 µM
- TGI (SK-MEL-2 melanoma): 0.791 µM
- GI50 (HL-60(TB) leukemia): 0.375 µM
- TGI (HL-60(TB) leukemia): 1.99 µM
- GI50 (SNB-75 CNS): 0.219 µM
- TGI (SNB-75 CNS): 1.36 µM
- GI50 (NCI-H23 lung): 0.328 µM
- TGI (NCI-H23 lung): 1.89 µM
- GI50 (SK-MEL-28 melanoma): 0.347 µM
- TGI (SK-MEL-28 melanoma): 1.75 µM
- GI50 (SR leukemia): 0.417 µM
- TGI (SR leukemia): 21.9 µM
- GI50 (SF-539 CNS): 0.403 µM
- TGI (SF-539 CNS): 4.04 µM
- GI50 (HCT-15 colon): 0.4 µM
- TGI (HCT-15 colon): 5.96 µM
- GI50 (SK-OV-3 ovarian): 0.271 µM
- TGI (SK-OV-3 ovarian): 2.13 µM
- GI50 (SK-MEL-5 melanoma): 0.246 µM
- TGI (SK-MEL-5 melanoma): 0.642 µM
- GI50 (U251 CNS): 0.375 µM
- TGI (U251 CNS): 19.3 µM
- GI50 (M14 melanoma): 0.416 µM
- TGI (M14 melanoma): 4.39 µM
- GI50 (T-47D breast): 0.279 µM
- TGI (T-47D breast): 1.52 µM
- GI50 (HOP-62 NSCLC): 0.774 µM
- TGI (HOP-62 NSCLC): 7.76 µM
- GI50 (OVCAR-4 ovarian): 0.389 µM
- TGI (OVCAR-4 ovarian): 13.7 µM
- GI50 (A549 NSCLC): 0.717 µM
- TGI (A549 NSCLC): 22.9 µM
- GI50 (NCI-H226 lung): 0.66 µM
- TGI (NCI-H226 lung): 3.36 µM
- GI50 (MDA-MB-231 breast): 0.327 µM
- TGI (MDA-MB-231 breast): 2.54 µM
- GI50 (EKVX NSCLC): 0.594 µM
- TGI (EKVX NSCLC): 5.73 µM
- GI50 (DU-145 prostate): 0.494 µM
- TGI (DU-145 prostate): 26.9 µM
- GI50 (CCRF-CEM leukemia): 0.625 µM
- TGI (CCRF-CEM leukemia): 6.82 µM
- GI50 (SN12C renal): 0.33 µM
- TGI (SN12C renal): 2.79 µM
- GI50 (IGROV1 ovarian): 0.378 µM
- TGI (IGROV1 ovarian): 18.9 µM
- GI50 (NCI/ADR-RES ovarian): 0.355 µM
- TGI (NCI/ADR-RES ovarian): 2.32 µM
- GI50 (RXF 393 renal): 0.396 µM
- TGI (RXF 393 renal): 1.93 µM
- GI50 (BT-549 breast): 0.341 µM
- TGI (BT-549 breast): 1.39 µM
- GI50 (UO-31 renal): 0.24 µM
- TGI (UO-31 renal): 1.22 µM
- GI50 (PC-3 prostate): 1.13 µM
- TGI (PC-3 prostate): 5.86 µM
- GI50 (OVCAR-3 ovarian): 0.336 µM
- TGI (OVCAR-3 ovarian): 8.52 µM
- GI50 (HCT-116 colon): 0.396 µM
- TGI (HCT-116 colon): 1.53 µM
- GI50 (MALME-3M melanoma): 0.32 µM
- TGI (MALME-3M melanoma): 1.27 µM
- GI50 (TK-10 renal): 0.631 µM
- TGI (TK-10 renal): 7.39 µM
- GI50 (786-0 renal): 1.96 µM
- TGI (786-0 renal): 6.16 µM
- GI50 (HOP-92 NSCLC): 0.164 µM
- TGI (HOP-92 NSCLC): 0.492 µM
- GI50 (A498 renal): 0.15 µM
- TGI (A498 renal): 0.377 µM
- GI50 (MCF7 breast): 0.709 µM
- TGI (MCF7 breast): 5.87 µM
- GI50 (NCI-H522 lung): 0.277 µM
- TGI (NCI-H522 lung): 1.65 µM
- GI50 (HT29 colon): 3.31 µM
- TGI (HT29 colon): 12.5 µM
- GI50 (HS 578T breast): 0.287 µM
- TGI (HS 578T breast): 1.36 µM
- GI50 (NCI-H460 lung): 0.367 µM
- TGI (NCI-H460 lung): 5.57 µM
- GI50 (SF-268 CNS): 0.383 µM
- TGI (SF-268 CNS): 4.82 µM
- GI50 (MDA-MB-435): 0.409 µM
- TGI (MDA-MB-435): 3.82 µM
